≈ marks a conversion by molar mass, not a printed value.
What was measured:
[1] = test system: 30S ribosomal subunit; details: cited from earlier work; for reduction of the rate of 30S formation compared with control cells: 3 μg/mL
[2] = test system: cells; details: cited from earlier work
[3] = test system: cultured adult human pancreatic cells; experiment: G418 sulfate treatment of HD522B P0 cells, marker mRNA by quantitative RT-PCR; type: cell-based
Description: (§1) HD522B P0 cells were cultured in M3 for 4 days; G418 sulfate in M3 at the following concentrations (μg/ml) was added to the culture: 0, 5, 25, 50, 100, 200, 500, and 1000. The cells were cultured in the presence of G418 sulfate for 48 h, switched to recovery medium (M3/ITS/LIF) for one week and harvested for quantitative RT-PCR analysis. The control group had to be harvested two days post recovery due to confluence. […] At lower dosages, cell death occurred between 1 and 3 days after switch to recovery medium. Cell proliferation could be observed during the recovery period in most of the conditions except in cultures containing 500 and 1000 μg/ml G418 sulfate. Cell confluence from each plate was estimated as following: 0 (100%), 5 (100%), 25 (95%), 50 (85%), 100 (50%), 200 (20%), 500 (less than 5%), 1000 (less than 2%). Approximately equal amount of cells from each plate were used for analysis based on the estimated confluences of each plate except the plates received 500 and 1000 μg/ml G418 sulfate treatment. The β-actin mRNA copy numbers have no significant variation in control group and cells received 5, 25, 50, and 100 μg/ml G418 whereas cells that received 200 to 1000 μg/ml G418 have much lower β-actin expression especially the 500 and 1000 μg/ml samples. This correlated well with the decreased cell confluence in these samples. The expression of endocrine gene markers increased as the concentration of G418 concentration increased to 100 μg/ml and decreased when G418 concentration is above 200 μg/ml. The expression of amylase, an exocrine marker, and nestin, a marker of mesenchymal cell, decreased as G418 concentration increased.

[4] = test system: HD522B P0 cells; experiment: G418 sulfate treatment of HD522B P0 cells, cell death and confluence; type: cell-based, human; details: for Cell confluence (estimated): one week recovery
Description: as §1

[5] = test system: RbbA; details: control antibiotic; cited from earlier work
[6] = test system: 70S ribosome-associated ATPase activity; details: cited from earlier work
[7] = test system: HD487B cells; experiment: Puromycin selection of HD487B cells, insulin mRNA by quantitative RT-PCR; type: cell-based, human
Description: In an attempt to see if other protein synthesis inhibitors have similar effect as hygromycin B on cultured pancreatic cells puromycin was used in a pilot experiment. We treated P0 cells from HD487B with puromycin at either 2.5 or 5 μg/mL concentrations in SM95/M7 (4:1) for overnight. The cells were recovered in the same medium without puromycin till reaching confluence and passaged to P1. P1 and P2 cells were cultured in SM95/M7 (9:1) with Wnt3a (20 ng/mL). P3 and P4 cells were cultured in SM95/M7 (4:1) with bFGF (50 ng/mL). P5 cells were cultured in maturation medium. We took portions of cells at each passages and analyzed insulin gene expression by quantitative RT-PCR and normalized to β-actin expression. Cells that survived puromycin treatment also expressed insulin at passages 1, 2, 3, 4, and 5.

## neomycin
[1]
  reduction of the rate of 30S formation compared with control cells: about 80%
  IC50 for 30S particle formation: equal to the IC50 for inhibition of translation
[2]
  IC50, viable cell number: 2 µg/mL

## geneticin sulfate [G418 Sulfate]
[3]; 5 μg/ml 48 h
  Amylase/β-actin: 1.72E−03
  CK19/β-actin: 7.51E−01
  Delta/β-actin: 1.24E−04
  GCK/β-actin: 2.20E−04
  GLUT2/β-actin: 4.36E−05
  Gcg/β-actin: 1.97E−02
  Insulin/β-actin: 1.67E+00
  NCAM/β-actin: 1.51E−01
  Nestin/β-actin: 2.52E−03
  NeuroD/β-actin: 1.26E−03
  Ngn3/β-actin: 2.45E−07
  Nkx2.2/β-actin: 7.84E−05
  Nkx6.1/β-actin: 4.52E−04
  Notch1/β-actin: 8.14E−05
  P48/β-actin: 8.62E−03
  PDX/β-actin: 7.02E−04
  Pax4/β-actin: 9.82E−06
  SST/β-actin: 5.88E−02
[3]; 25 μg/ml 48 h
  Amylase/β-actin: 6.09E−04
  CK19/β-actin: 1.06E+00
  Delta/β-actin: 1.08E−04
  GCK/β-actin: 2.51E−04
  GLUT2/β-actin: 1.10E−04
  Gcg/β-actin: 4.56E−02
  Insulin/β-actin: 3.40E+00
  NCAM/β-actin: 2.23E−01
  Nestin/β-actin: 1.24E−03
  NeuroD/β-actin: 1.79E−03
  Ngn3/β-actin: 9.19E−07
  Nkx2.2/β-actin: 2.35E−04
  Nkx6.1/β-actin: 6.45E−04
  Notch1/β-actin: 3.02E−04
  P48/β-actin: 1.12E−02
  PDX/β-actin: 1.11E−03
  Pax4/β-actin: 1.24E−05
  SST/β-actin: 1.03E−01
[3]; 50 μg/ml 48 h
  Amylase/β-actin: 4.50E−04
  CK19/β-actin: 1.02E+00
  Delta/β-actin: 7.70E−05
  GCK/β-actin: 3.01E−04
  GLUT2/β-actin: 2.17E−04
  Gcg/β-actin: 9.04E−02
  Insulin/β-actin: 5.51E+00
  NCAM/β-actin: 1.51E−01
  Nestin/β-actin: 5.42E−04
  NeuroD/β-actin: 3.10E−03
  Ngn3/β-actin: 2.13E−06
  Nkx2.2/β-actin: 4.03E−04
  Nkx6.1/β-actin: 6.82E−04
  Notch1/β-actin: 4.91E−04
  P48/β-actin: 9.21E−03
  PDX/β-actin: 1.28E−03
  Pax4/β-actin: 2.63E−05
  SST/β-actin: 1.84E−01
[3]; 100 μg/ml 48 h
  Amylase/β-actin: 5.09E−04
  CK19/β-actin: 9.98E−01
  Delta/β-actin: 1.16E−04
  GCK/β-actin: 8.81E−04
  GLUT2/β-actin: 4.53E−04
  Gcg/β-actin: 1.85E−01
  Insulin/β-actin: 1.06E+01
  NCAM/β-actin: 9.73E−02
  Nestin/β-actin: 3.48E−04
  NeuroD/β-actin: 6.94E−03
  Ngn3/β-actin: 2.71E−06
  Nkx2.2/β-actin: 8.70E−04
  Nkx6.1/β-actin: 9.19E−04
  Notch1/β-actin: 5.39E−04
  P48/β-actin: 7.93E−03
  PDX/β-actin: 1.72E−03
  Pax4/β-actin: 5.31E−05
  SST/β-actin: 4.63E−01
[3]; 200 μg/ml 48 h
  Amylase/β-actin: 1.29E−03
  CK19/β-actin: 4.09E−01
  Delta/β-actin: 2.67E−04
  GCK/β-actin: 2.74E−03
  GLUT2/β-actin: 1.33E−03
  Gcg/β-actin: 5.44E−01
  Insulin/β-actin: 1.56E+01
  NCAM/β-actin: 6.17E−02
  Nestin/β-actin: 1.81E−03
  NeuroD/β-actin: 1.76E−02
  Ngn3/β-actin: 2.37E−06
  Nkx2.2/β-actin: 3.31E−03
  Nkx6.1/β-actin: 1.99E−03
  Notch1/β-actin: 1.60E−03
  P48/β-actin: 1.04E−02
  PDX/β-actin: 6.90E−03
  Pax4/β-actin: 2.32E−04
  SST/β-actin: 1.37E+00
[3]; 500 μg/ml 48 h
  Amylase/β-actin: 7.63E−03
  CK19/β-actin: 1.03E−01
  Delta/β-actin: 1.27E−03
  GCK/β-actin: 1.85E−02
  GLUT2/β-actin: 1.09E−02
  Gcg/β-actin: 3.80E+00
  Insulin/β-actin: 8.21E+01
  NCAM/β-actin: 5.51E−02
  Nestin/β-actin: 3.37E−03
  NeuroD/β-actin: 1.42E−01
  Ngn3/β-actin: 0.00E+00
  Nkx2.2/β-actin: 2.84E−02
  Nkx6.1/β-actin: 1.28E−02
  Notch1/β-actin: 1.93E−03
  P48/β-actin: 2.43E−02
  PDX/β-actin: 5.35E−02
  Pax4/β-actin: 1.50E−03
  SST/β-actin: 8.06E+00
[3]; 1000 μg/ml 48 h
  Amylase/β-actin: 1.24E−02
  CK19/β-actin: 1.44E−02
  Delta/β-actin: 4.18E−03
  GCK/β-actin: 2.39E−02
  GLUT2/β-actin: 1.29E−02
  Gcg/β-actin: 4.98E+00
  Insulin/β-actin: 2.02E+02
  NCAM/β-actin: 3.31E−02
  Nestin/β-actin: 0.00E+00
  NeuroD/β-actin: 1.72E−01
  Ngn3/β-actin: 0.00E+00
  Nkx2.2/β-actin: 6.69E−02
  Nkx6.1/β-actin: 1.37E−02
  Notch1/β-actin: 3.99E−03
  P48/β-actin: 5.95E−02
  PDX/β-actin: 4.87E−02
  Pax4/β-actin: 7.64E−04
  SST/β-actin: 2.43E+01
[4]; 5 μg/ml 48 h
  Cell confluence (estimated): 100%
[4]; 25 μg/ml 48 h
  Cell confluence (estimated): 95%
[4]; 50 μg/ml 48 h
  Cell confluence (estimated): 85%
[4]; 100 μg/ml 48 h
  Cell confluence (estimated): 50%
[4]; 200 μg/ml 48 h
  Cell confluence (estimated): 20%
[4]; 500 μg/ml 48 h
  Cell confluence (estimated): less than 5%
[4]; 1000 μg/ml 48 h
  Cell confluence (estimated): less than 2%
[4]; 500 and 1000 μg/ml groups, from start of treatment
  time to observed cell death: ≤ 24 h

## [H]/N=C(/N)N[C@H]1[C@H](O)[C@@H](O)[C@H](O[C@@H]2O[C@@H](C)[C@](O)(C=O)[C@H]2O[C@@H]2O[C@@H](CO)[C@H](O)[C@@H](O)[C@@H]2NC)[C@@H](N/C(N)=N\[H])[C@@H]1O [Streptomycin, streptomycin]
[5]
  RbbA released, relative to the amount hygromycin B releases: about 25%
[6]
  inhibition of the ATPase activity of ribosomes compared to that of hygromycin B: about 20%

## COc1ccc(C[C@H](N)C(=O)N[C@H]2[C@@H](O)[C@H](n3cnc4c(N(C)C)ncnc43)O[C@@H]2CO)cc1 [puromycin]
[7]; HD487B P1, 2.5 μg/mL @ P0
  Insulin expression (normalized to β-actin): 3.96E−01
[7]; HD487B P1, 5 μg/mL @ P0
  Insulin expression (normalized to β-actin): 8.48E−02
[7]; HD487B P2, 2.5 μg/mL @ P0
  Insulin expression (normalized to β-actin): 1.39E−02
[7]; HD487B P2, 5 μg/mL @ P0
  Insulin expression (normalized to β-actin): 2.51E−02
[7]; HD487B P3, 2.5 μg/mL @ P0
  Insulin expression (normalized to β-actin): 9.89E−03
[7]; HD487B P3, 5 μg/mL @ P0
  Insulin expression (normalized to β-actin): 2.63E−02
[7]; HD487B P4, 2.5 μg/mL @ P0
  Insulin expression (normalized to β-actin): 3.46E−03
[7]; HD487B P5, 2.5 μg/mL @ P0
  Insulin expression (normalized to β-actin): 1.83E−03

## NC[C@@H]1O[C@H](O[C@H]2[C@@H](O)[C@H](O[C@@H]3[C@@H](O)[C@H](N)C[C@H](N)[C@H]3O[C@H]3O[C@H](CO)[C@@H](O)[C@H](O)[C@H]3N)O[C@@H]2CO)[C@H](N)[C@@H](O)[C@@H]1O [paromomycin]
[1]
  reduction of the rate of 30S formation compared with control cells: about 80%
[2]
  IC50, viable cell number: 2 µg/mL (≈ 3.25 µM)

Reference: patent US20070015279A1, “Methods of Selecting Pancreatic Endocrine Cells Using Protein Synthesis Inhibitors” (AmCyte Inc., priority 2005, published 2007)
